According to PubChem BioAssay (NCI):
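All cell lines were grown in 96-well plates and treated with compound for 48 hours. GI50: concentration for 50% inhibition of growth. At the TGI there is no net growth.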 Where a SMILES comes first, the peptide text is derived from it. [ ]: non-standard residue; d: D form. Phe(ol) = N[C@H](CO)Cc1ccccc1; Aib = CC(C)(N)C(=O)O

Tests used:
Experiment in all cases: growth of human tumour cells (NCI), 48 h
786-0 renal = tested on: 786-0 renal
A498 renal = tested on: A498 renal
A549 NSCLC = tested on: A549 NSCLC
ACHN renal = tested on: ACHN renal
BT-549 breast = tested on: BT-549 breast
CCRF-CEM leukemia = tested on: CCRF-CEM leukemia
COLO 205 colon = tested on: COLO 205 colon
EKVX NSCLC = tested on: EKVX NSCLC
HCC-2998 colon = tested on: HCC-2998 colon
HCT-116 colon = tested on: HCT-116 colon
HCT-15 colon = tested on: HCT-15 colon
HL-60(TB) leukemia = tested on: HL-60(TB) leukemia
HOP-62 NSCLC = tested on: HOP-62 NSCLC
HOP-92 NSCLC = tested on: HOP-92 NSCLC
HS 578T breast = tested on: HS 578T breast
HT29 colon = tested on: HT29 colon
IGROV1 ovarian = tested on: IGROV1 ovarian
K-562 leukemia = tested on: K-562 leukemia
KM12 colon = tested on: KM12 colon
LOX IMVI melanoma = tested on: LOX IMVI melanoma
M14 melanoma = tested on: M14 melanoma
MALME-3M melanoma = tested on: MALME-3M melanoma
MCF7 breast = tested on: MCF7 breast
MDA-MB-231 breast = tested on: MDA-MB-231 breast
MDA-MB-435 = tested on: MDA-MB-435
MOLT-4 leukemia = tested on: MOLT-4 leukemia
NCI-H226 lung = tested on: NCI-H226 lung
NCI-H23 lung = tested on: NCI-H23 lung
NCI-H460 lung = tested on: NCI-H460 lung
NCI-H522 lung = tested on: NCI-H522 lung
NCI/ADR-RES ovarian = tested on: NCI/ADR-RES ovarian
OVCAR-3 ovarian = tested on: OVCAR-3 ovarian
OVCAR-4 ovarian = tested on: OVCAR-4 ovarian
OVCAR-5 ovarian = tested on: OVCAR-5 ovarian
OVCAR-8 ovarian = tested on: OVCAR-8 ovarian
PC-3 prostate = tested on: PC-3 prostate
RPMI-8226 leukemia = tested on: RPMI-8226 leukemia
RXF 393 renal = tested on: RXF 393 renal
SF-268 CNS = tested on: SF-268 CNS
SF-295 CNS = tested on: SF-295 CNS
SF-539 CNS = tested on: SF-539 CNS
SK-MEL-2 melanoma = tested on: SK-MEL-2 melanoma
SK-MEL-28 melanoma = tested on: SK-MEL-28 melanoma
SK-MEL-5 melanoma = tested on: SK-MEL-5 melanoma
SK-OV-3 ovarian = tested on: SK-OV-3 ovarian
SN12C renal = tested on: SN12C renal
SNB-19 CNS = tested on: SNB-19 CNS
SNB-75 CNS = tested on: SNB-75 CNS
SR leukemia = tested on: SR leukemia
SW-620 colon = tested on: SW-620 colon
T-47D breast = tested on: T-47D breast
TK-10 renal = tested on: TK-10 renal
U251 CNS = tested on: U251 CNS
UACC-257 melanoma = tested on: UACC-257 melanoma
UACC-62 melanoma = tested on: UACC-62 melanoma
UO-31 renal = tested on: UO-31 renal

CC(=O)NC(C)(C)C(=O)N1CCC[C@H]1C(=O)NC(C)(C)C(=O)N[C@@H](C)C(=O)NC(C)(C)C(=O)NC(C)(C)C(=O)N[C@@H](CCC(N)=O)C(=O)NC(C)(C)C(=O)N[C@H](C(=O)NC(C)(C)C(=O)NCC(=O)N[C@@H](CC(C)C)C(=O)NC(C)(C)C(=O)N1CCC[C@H]1C(=O)N[C@H](C(=O)NC(C)(C)C(=O)NC(C)(C)C(=O)N[C@@H](CCC(N)=O)C(=O)N[C@@H](CCC(N)=O)C(=O)N[C@H](CO)Cc1ccccc1)C(C)C)C(C)C (Ac-[Aib]P[Aib]A[Aib][Aib]Q[Aib]V[Aib]GL[Aib]PV[Aib][Aib]QQ[Phe(ol)])
GI50 (786-0 renal): > 4250 nM
TGI (786-0 renal): > 4250 nM
GI50 (A498 renal): 1640 nM
TGI (A498 renal): > 4250 nM
GI50 (A549 NSCLC): 1690 nM
TGI (A549 NSCLC): > 4250 nM
GI50 (ACHN renal): > 4250 nM
TGI (ACHN renal): > 4250 nM
GI50 (BT-549 breast): 780 nM
TGI (BT-549 breast): 2660 nM
GI50 (CCRF-CEM leukemia): 2110 nM
TGI (CCRF-CEM leukemia): > 4250 nM
GI50 (COLO 205 colon): 831 nM
TGI (COLO 205 colon): 2310 nM
GI50 (EKVX NSCLC): 2510 nM
TGI (EKVX NSCLC): > 4250 nM
GI50 (HCC-2998 colon): 1960 nM
TGI (HCC-2998 colon): > 4250 nM
GI50 (HCT-116 colon): 1580 nM
TGI (HCT-116 colon): > 4250 nM
GI50 (HCT-15 colon): > 4250 nM
TGI (HCT-15 colon): > 4250 nM
GI50 (HL-60(TB) leukemia): 1740 nM
TGI (HL-60(TB) leukemia): > 4250 nM
GI50 (HOP-62 NSCLC): 3070 nM
TGI (HOP-62 NSCLC): > 4250 nM
GI50 (HOP-92 NSCLC): 1100 nM
TGI (HOP-92 NSCLC): 3580 nM
GI50 (HS 578T breast): 1490 nM
TGI (HS 578T breast): > 4250 nM
GI50 (HT29 colon): 1260 nM
TGI (HT29 colon): > 4250 nM
GI50 (IGROV1 ovarian): 3060 nM
TGI (IGROV1 ovarian): > 4250 nM
GI50 (K-562 leukemia): 1880 nM
TGI (K-562 leukemia): > 4250 nM
GI50 (KM12 colon): 1880 nM
TGI (KM12 colon): > 4250 nM
GI50 (LOX IMVI melanoma): 1570 nM
TGI (LOX IMVI melanoma): > 4250 nM
GI50 (M14 melanoma): 3850 nM
TGI (M14 melanoma): > 4250 nM
GI50 (MALME-3M melanoma): 1040 nM
TGI (MALME-3M melanoma): 3430 nM
GI50 (MCF7 breast): 206 nM
TGI (MCF7 breast): > 4250 nM
GI50 (MDA-MB-231 breast): 1290 nM
TGI (MDA-MB-231 breast): > 4250 nM
GI50 (MDA-MB-435): 1500 nM
TGI (MDA-MB-435): > 4250 nM
GI50 (MOLT-4 leukemia): 2800 nM
TGI (MOLT-4 leukemia): > 4250 nM
GI50 (NCI-H226 lung): 1320 nM
TGI (NCI-H226 lung): > 4250 nM
GI50 (NCI-H23 lung): 833 nM
TGI (NCI-H23 lung): > 4250 nM
GI50 (NCI-H460 lung): 1270 nM
TGI (NCI-H460 lung): > 4250 nM
GI50 (NCI-H522 lung): 948 nM
TGI (NCI-H522 lung): > 4250 nM
GI50 (NCI/ADR-RES ovarian): > 4250 nM
TGI (NCI/ADR-RES ovarian): > 4250 nM
GI50 (OVCAR-3 ovarian): 1290 nM
TGI (OVCAR-3 ovarian): > 4250 nM
GI50 (OVCAR-4 ovarian): 1050 nM
TGI (OVCAR-4 ovarian): > 4250 nM
GI50 (OVCAR-5 ovarian): 1730 nM
TGI (OVCAR-5 ovarian): > 4250 nM
GI50 (OVCAR-8 ovarian): 2430 nM
TGI (OVCAR-8 ovarian): > 4250 nM
GI50 (PC-3 prostate): 1340 nM
TGI (PC-3 prostate): > 4250 nM
GI50 (RPMI-8226 leukemia): 296 nM
TGI (RPMI-8226 leukemia): 2190 nM
GI50 (RXF 393 renal): 777 nM
TGI (RXF 393 renal): 2480 nM
GI50 (SF-268 CNS): 1730 nM
TGI (SF-268 CNS): > 4250 nM
GI50 (SF-295 CNS): 1320 nM
TGI (SF-295 CNS): > 4250 nM
GI50 (SF-539 CNS): 1340 nM
TGI (SF-539 CNS): > 4250 nM
GI50 (SK-MEL-2 melanoma): 1330 nM
TGI (SK-MEL-2 melanoma): 4020 nM
GI50 (SK-MEL-28 melanoma): 1360 nM
TGI (SK-MEL-28 melanoma): > 4250 nM
GI50 (SK-MEL-5 melanoma): 899 nM
TGI (SK-MEL-5 melanoma): 1960 nM
GI50 (SK-OV-3 ovarian): 1280 nM
TGI (SK-OV-3 ovarian): > 4250 nM
GI50 (SN12C renal): 931 nM
TGI (SN12C renal): > 4250 nM
GI50 (SNB-19 CNS): 1160 nM
TGI (SNB-19 CNS): > 4250 nM
GI50 (SNB-75 CNS): 788 nM
TGI (SNB-75 CNS): > 4250 nM
GI50 (SR leukemia): 2200 nM
TGI (SR leukemia): > 4250 nM
GI50 (SW-620 colon): 2550 nM
TGI (SW-620 colon): > 4250 nM
GI50 (T-47D breast): 1120 nM
TGI (T-47D breast): 3880 nM
GI50 (TK-10 renal): 3920 nM
TGI (TK-10 renal): > 4250 nM
GI50 (U251 CNS): 1070 nM
TGI (U251 CNS): > 4250 nM
GI50 (UACC-257 melanoma): 1020 nM
TGI (UACC-257 melanoma): 3430 nM
GI50 (UACC-62 melanoma): 1800 nM
TGI (UACC-62 melanoma): > 4250 nM
GI50 (UO-31 renal): > 4250 nM
TGI (UO-31 renal): > 4250 nM
